Laboratory results published in patent publication US20100120858A1, “Piperidine Derivatives” (Pfizer Inc., priority 2006, published 2010).

Key:
[1] = test system: capsaicin-induced mechanical allodynia; assay: Capsaicin-induced mechanical allodynia rat model; assay type: in vivo; conditions: sc, male Sprague-Dawley rats, single subcutaneous 10 mg/kg dose on Day 7, measurement 1 hour post dose, mean of eight animals
Description: On Day 0, male Sprague-Dawley rats (about 150 g each) in the dark cycle were placed in suspended wire-bottom cages and allowed to acclimate for 0.5 hour in a darkened, quiet room. The Day 0 paw withdrawal threshold (PWT) was determined on the left hind paw by Von Frey hair assessment using the Dixon up and down method. After assessment, the plantar muscle of the right hind paw was injected with 100 μL of capsaicin (0.25% weight/volume (w/v) in 10% ethanol, 10% Tween 80, in sterile saline).
On Day 6, the PWT of the left hind paw (contralateral from the injected paw) was determined for each animal. Animals on Day 6 with PWT≦11.7 g were considered allodynic responders and were regrouped so that the animals in each cage had similar mean PWT values.
On Day 7, the responders were dosed subcutaneously with 10 mg of the test compound per kg of rat body weight in vehicle, or were administered vehicle (10 mL/kg) alone. The vehicle was phosphate buffered saline containing 2% CREMOPHOR® EL (BASF). The contralateral (i.e., left hind paw) PWT values were determined at 1 hour after the single dose, with the investigator blinded to the dosing scheme. For each animal, the Day 6 PWT value was subtracted from the Day 7, 1 hour PWT value for the 10 mg/kg doses of test compound to give a delta PWT value (Delta PWT (drug)), which represents the change in PWT due to the 1 hour drug treatment. In the case of vehicle-alone treated animals, the Day 6 PWT value was subtracted from the Day 7, 1 hour PWT for the 10 mL/kg doses of vehicle and the values averaged (mean Delta PWT (vehicle)). In addition, the Day 6 PWT was subtracted from the Day 0 PWT to give the baseline level (Baseline) of allodynia present in each animal. Percent inhibition of allodynia of each animal, normalized for vehicle controls, was determined using the following formula: […]

[2] = target: human norepinephrine transporter (Homo sapiens, UniProt P23975); assay: Human norepinephrine (hNET) receptor binding, [125I]-RTI-55; conditions: membranes of HEK-293 cells transfected with human norepinephrine transporter cDNA; 50 pM [125I]-RTI-55; IC50 converted by Cheng-Prusoff
Outline: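 Membranes from HEK-293 cells expressing human NET, incubated 90 min at room temperature with 50 pM [125I]-RTI-55 and compound (10^−5 to 10^−12 M) in Krebs-HEPES pH 7.4. Nonspecific binding defined with 10 μM desipramine; filter-bound counts gave IC50, converted to Ki by Cheng-Prusoff.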

[3] = target: human serotonin transporter (Homo sapiens, UniProt P31645); assay: Human serotonin (hSERT) receptor binding, [125I]-RTI-55; conditions: membranes of HEK-293 cells transfected with human serotonin transporter cDNA, IC50 converted by Cheng-Prusoff
Outline: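 Membranes from HEK-293 cells expressing human SERT were incubated 90 min at room temperature in Krebs-HEPES buffer pH 7.4 with […] [125I]-RTI-55 and compound (10^−5 to 10^−12 M), in duplicate. Nonspecific binding defined with 10 μM citalopram; IC50 converted to Ki by Cheng-Prusoff.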

Sequence of human serotonin transporter (P31645 whole entry): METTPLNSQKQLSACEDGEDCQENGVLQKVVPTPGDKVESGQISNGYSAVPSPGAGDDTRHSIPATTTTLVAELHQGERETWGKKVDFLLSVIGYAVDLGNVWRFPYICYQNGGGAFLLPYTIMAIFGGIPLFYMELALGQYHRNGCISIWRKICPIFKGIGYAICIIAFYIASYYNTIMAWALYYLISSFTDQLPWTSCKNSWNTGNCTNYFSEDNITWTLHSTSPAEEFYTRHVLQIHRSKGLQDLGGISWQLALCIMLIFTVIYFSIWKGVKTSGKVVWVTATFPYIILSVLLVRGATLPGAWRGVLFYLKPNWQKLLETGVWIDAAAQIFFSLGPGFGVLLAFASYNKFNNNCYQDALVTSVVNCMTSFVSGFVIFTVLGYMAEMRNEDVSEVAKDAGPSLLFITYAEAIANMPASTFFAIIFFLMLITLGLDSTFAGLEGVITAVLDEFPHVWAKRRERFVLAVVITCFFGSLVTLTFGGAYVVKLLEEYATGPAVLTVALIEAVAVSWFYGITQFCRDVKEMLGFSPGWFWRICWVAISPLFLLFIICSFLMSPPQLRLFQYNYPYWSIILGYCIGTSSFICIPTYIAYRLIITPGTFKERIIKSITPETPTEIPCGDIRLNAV
Sequence of human norepinephrine transporter (P23975 whole entry): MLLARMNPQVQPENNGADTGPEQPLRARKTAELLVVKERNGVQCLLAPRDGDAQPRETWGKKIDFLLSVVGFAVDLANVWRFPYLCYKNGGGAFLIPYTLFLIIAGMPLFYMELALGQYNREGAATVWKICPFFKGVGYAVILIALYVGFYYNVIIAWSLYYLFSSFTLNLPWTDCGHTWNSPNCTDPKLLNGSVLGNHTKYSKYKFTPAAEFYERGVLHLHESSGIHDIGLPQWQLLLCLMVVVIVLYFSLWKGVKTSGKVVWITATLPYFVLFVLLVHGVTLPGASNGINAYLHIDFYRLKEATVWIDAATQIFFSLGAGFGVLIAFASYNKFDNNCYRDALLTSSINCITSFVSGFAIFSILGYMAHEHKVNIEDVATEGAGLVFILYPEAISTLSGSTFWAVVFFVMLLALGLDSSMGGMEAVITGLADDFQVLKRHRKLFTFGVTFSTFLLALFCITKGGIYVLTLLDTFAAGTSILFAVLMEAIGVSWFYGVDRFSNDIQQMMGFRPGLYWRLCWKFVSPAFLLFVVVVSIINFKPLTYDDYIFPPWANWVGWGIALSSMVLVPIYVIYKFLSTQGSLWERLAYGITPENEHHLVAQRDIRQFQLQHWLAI

| Ki [2] | Ki [3] | melting point | Compound | inhibition in vivo at 10 mg/kg [1] |
| --- | --- | --- | --- | --- |
| 0.14 µM | 0.803 µM | 130 to 131 °C | Fc1ccc(Oc2ncccc2OC[C@@H]2CCCNC2)cc1F.O=C(O)/C=C/C(=O)O [Example 63, (R)-2-(3,4-difluoro-phenoxy)-3-(piperidin-3-ylmethoxy)-pyridine fumaric acid] | – |
| 0.007 µM | 2.2 µM | 169 to 170 °C | Cc1ccc(Oc2ncccc2OC[C@H]2CCCNC2)cc1C.O=C(O)/C=C/C(=O)O [Example 65, (S)-2-(3,4-dimethyl-phenoxy)-3-(piperidin-3-ylmethoxy)-pyridine fumaric acid] | – |
| 0.02 µM | 2.9 µM | 143 to 144 °C (dec.) | Fc1ccc(Oc2ncccc2OC[C@H]2CCCNC2)cc1Cl.O=C(O)/C=C/C(=O)O [Example 66, (S)-2-(3-chloro-4-fluoro-phenoxy)-3-(piperidin-3-ylmethoxy)-pyridine fumaric acid] | – |
| 0.006 µM | 3.3 µM | 136 to 138 °C | Cc1cc(Oc2ncccc2OC[C@H]2CCCNC2)ccc1F.O=C(O)/C=C/C(=O)O [Example 67, (S)-2-(4-fluoro-3-methyl-phenoxy)-3-(piperidin-3-ylmethoxy)-pyridine fumaric acid] | – |
| 0.006 µM | 5.8 µM | 130 to 132 °C | Cc1cccc(Oc2ncccc2OC[C@H]2CCCNC2)c1.O=C(O)/C=C/C(=O)O [Example 68, (S)-2-(3-methyl-phenoxy)-3-(piperidin-3-ylmethoxy)-pyridine fumaric acid] | – |
| 0.004 µM | 5.5 µM | 150 to 151 °C | Fc1cc(Oc2ncccc2OC[C@H]2CCCNC2)ccc1Cl.O=C(O)/C=C/C(=O)O [Example 69, (S)-2-(4-chloro-3-fluoro-phenoxy)-3-(piperidin-3-ylmethoxy)-pyridine fumaric acid] | – |
| 0.002 µM | 6.6 µM | 189 to 190 °C (dec.) | Fc1ccc(Oc2ncccc2OC[C@H]2CCCNC2)c(Cl)c1.O=C(O)/C=C/C(=O)O [Example 71, (S)-2-(2-chloro-4-fluoro-phenoxy)-3-(piperidin-3-ylmethoxy)-pyridine fumaric acid] | – |
| 0.002 µM | 3.3 µM | 182 to 183 °C (dec.) | Fc1cccc(F)c1Oc1ncccc1OC[C@H]1CCCNC1.O=C(O)/C=C/C(=O)O [Example 72, (S)-2-(2,6-difluoro-phenoxy)-3-(piperidin-3-ylmethoxy)-pyridine fumaric acid] | – |
| 0.004 µM | > 10 µM | 165 to 167 °C (dec.) | Cc1ccccc1Oc1ncccc1OC[C@H]1CCCNC1.O=C(O)/C=C/C(=O)O [Example 73, (S)-2-(2-methyl-phenoxy)-3-(piperidin-3-ylmethoxy)-pyridine fumaric acid] | – |
| 0.011 µM | > 10 µM | 129 to 134 °C (dec.) | CC(C)Oc1ccccc1Oc1ncccc1OC[C@H]1CCCNC1.O=C(O)/C=C/C(=O)O [Example 74, (S)-2-(2-isopropoxy-phenoxy)-3-(piperidin-3-ylmethoxy)-pyridine fumaric acid] | – |
| 0.76 µM | > 10 µM | 112 to 114 °C (dec.) | CC(C)c1ccccc1Oc1ncccc1OC[C@H]1CCCNC1.O=C(O)/C=C/C(=O)O [Example 75, (S)-2-(2-isopropyl-phenoxy)-3-(piperidin-3-ylmethoxy)-pyridine fumaric acid] | – |
| 0.004 µM | 4.8 µM | 183 to 184 °C (dec.) | Cc1ccc(Cl)c(Oc2ncccc2OC[C@H]2CCCNC2)c1.O=C(O)/C=C/C(=O)O [Example 76, (S)-2-(2-chloro-5-methyl-phenoxy)-3-(piperidin-3-ylmethoxy)-pyridine fumaric acid] | – |
| 6.1 µM | 7.2 µM | 165 to 167 °C (dec.) | O=C(O)/C=C/C(=O)O.c1ccc(COc2ncccc2OC[C@H]2CCCNC2)cc1 [Example 77, (S)-2-benzyloxy-3-(piperidin-3-ylmethoxy)-pyridine fumaric acid] | – |
| 0.21 µM | 3.7 µM | 146 to 148 °C (dec.) | O=C(O)/C=C/C(=O)O.c1ccc(CCOc2ncccc2OC[C@H]2CCCNC2)cc1 [Example 82, (S)-2-phenethyloxy-3-(piperidin-3-ylmethoxy)-pyridine fumaric acid] | – |
| 0.21 µM | 0.01 µM | 141 to 142 °C (dec.) | O=C(O)/C=C/C(=O)O.c1ccc(CCCOc2ncccc2OC[C@H]2CCCNC2)cc1 [Example 83, (S)-2-(3-phenyl-propoxy)-3-(piperidin-3-ylmethoxy)-pyridine fumaric acid] | – |
| 0.41 µM | 4.7 µM | 141 to 143 °C (dec.) | O=C(O)/C=C/C(=O)O.c1ccc(Oc2ncccc2OC[C@@H]2CCCNC2)cc1 [Example 94, (R)-2-phenoxy-3-(piperidin-3-ylmethoxy)-pyridine fumaric acid] | – |

Second part, the compound before the results:

| Compound | Ki [2] | Ki [3] | melting point | inhibition in vivo at 10 mg/kg [1] |
| --- | --- | --- | --- | --- |
| COc1cc(C)ccc1Oc1nc(C)ccc1OC[C@H]1CCCNC1 [Example 4, (S)-2-(2-methoxy-4-methyl-phenoxy)-6-methyl-3-(piperidin-3-ylmethoxy)-pyridine fumaric acid] | 0.0074 µM | 0.17 µM | – | 43% |
| COc1ccc(Oc2nc(C)ccc2OC[C@H]2CCCNC2)cc1 [Example 6, (S)-2-(4-methoxy-phenoxy)-6-methyl-3-(piperidin-3-ylmethoxy)-pyridine fumaric acid] | 0.016 µM | 0.36 µM | – | 16% |
| Cc1ccc(Oc2nc(C)ccc2OC[C@H]2CCCNC2)cc1 [Example 8, (S)-2-(4-methyl-phenoxy)-6-methyl-3-(piperidin-3-ylmethoxy)-pyridine fumaric acid] | 0.0103 µM | 0.159 µM | – | 22% |
| CCc1ccc(Oc2nc(C)ccc2OC[C@H]2CCCNC2)c(OC)c1 [Example 11, (S)-2-(4-ethyl-2-methoxy-phenoxy)-6-methyl-3-(piperidin-3-ylmethoxy)-pyridine fumaric acid] | 0.018 µM | 0.18 µM | – | 9% |
| COc1cc(Cl)ccc1Oc1nc(C)ccc1OC[C@H]1CCCNC1 [Example 12, (S)-2-(4-chloro-2-methoxy-phenoxy)-6-methyl-3-(piperidin-3-ylmethoxy)-pyridine fumaric acid] | 0.0087 µM | 0.12 µM | – | 88% |
| Cc1ccc(Oc2nc(C)ccc2OC[C@H]2CCCNC2)c(Cl)c1 [Example 14, (S)-2-(2-chloro-4-methyl-phenoxy)-6-methyl-3-(piperidin-3-ylmethoxy)-pyridine fumaric acid] | 0.0028 µM | 0.04 µM | – | 48% |
| Cc1ccc(OC[C@H]2CCCNC2)c(Oc2ccc(Cl)cc2F)n1 [Example 23, (S)-2-(4-chloro-2-fluoro-phenoxy)-6-methyl-3-(piperidin-3-ylmethoxy)-pyridine fumaric acid] | 0.0053 µM | 0.028 µM | – | 65% |
| FC(F)(F)Oc1cccc(Oc2ncccc2OC[C@H]2CCCNC2)c1.O=C(O)/C=C/C(=O)O [Example 70, (S)-3-(piperidin-3-ylmethoxy)-2-(3-trifluoromethoxy-phenoxy)-pyridine fumaric acid] | 0.102 µM | 9.7 µM | 144 to 146 °C | – |
| Cl.c1ccc(COc2ccccc2OC[C@H]2CCCNC2)cc1 [Example 99, (S)-3-(2-benzyloxy-phenoxymethyl)-piperidine hydrochloride] | 0.011 µM | 4.8 µM | 137 to 140 °C (dec.) | – |
| Cl.c1ccc(OC2CCCCC2)c(OC[C@H]2CCCNC2)c1 [Example 101, (S)-3-(2-cyclohexyloxy-phenoxymethyl)-piperidine hydrochloride] | 0.02 µM | > 9.7 µM | 149 to 150 °C | – |
| CC(C)COc1ccccc1OCC1CCCNC1.Cl (stereo not drawn) [Example 102, 3-(2-isobutoxy-phenoxymethyl)-piperidine hydrochloride] | 0.032 µM | 3.96 µM | 162 °C | – |
